By IC50 is commonly meant the concentration needed to halve the response being measured. High values mean weaker potency in that assay, low ones greater potency in that assay. The term inhibition in vivo denotes the share of the control response that was lost under treatment.

This note sets out measurements from ChEMBL document CHEMBL1151014, “Tetrazole-substituted ureas as inhibitors of acyl-CoA:cholesterol O-acyltransferase (ACAT). A novel preparation of ureas from weakly nucleophilic amines” (Bioorg Med Chem Lett, 1996).

The subject of assay [1] is Rattus norvegicus. As to the kind of experiment: Total serum cholesterol level was measured in rats after administering single high-fat, high cholesterol meal. It is filed as functional.
Assay [2] deals with T1, Sterol O-acyltransferase 1 (Rattus norvegicus, UniProt O70536).
T1 sequence (O70536 whole entry): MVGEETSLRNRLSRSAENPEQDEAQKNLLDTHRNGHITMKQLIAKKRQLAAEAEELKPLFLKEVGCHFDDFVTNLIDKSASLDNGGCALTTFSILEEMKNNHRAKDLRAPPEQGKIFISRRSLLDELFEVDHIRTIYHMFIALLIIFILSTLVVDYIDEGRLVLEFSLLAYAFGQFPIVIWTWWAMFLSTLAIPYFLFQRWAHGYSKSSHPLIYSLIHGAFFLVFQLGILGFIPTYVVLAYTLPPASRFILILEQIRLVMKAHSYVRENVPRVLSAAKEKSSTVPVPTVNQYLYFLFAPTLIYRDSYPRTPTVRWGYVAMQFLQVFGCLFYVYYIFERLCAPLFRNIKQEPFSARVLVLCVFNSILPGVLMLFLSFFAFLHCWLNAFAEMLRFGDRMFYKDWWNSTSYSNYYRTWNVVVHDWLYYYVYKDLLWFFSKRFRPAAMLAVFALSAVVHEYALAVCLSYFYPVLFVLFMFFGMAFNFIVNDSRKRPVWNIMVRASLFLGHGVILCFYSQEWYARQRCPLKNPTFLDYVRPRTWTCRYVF
The assay can be described thus: Liver ACAT inhibitory activity was determined in vitro using [1-14C]oleolyl-CoA and microsomes isolated from the livers of cholesterol fed rats. More on the design: species or system Microsome.

For assay [3], the target named is T1, Sterol O-acyltransferase 1. The assay can be described thus: Liver Acyl coenzyme A:cholesterol acyltransferase inhibitory activity was determined in vitro using [1-14C]oleolyl-CoA and microsomes isolated from the livers of cholesterol fed rats. More on the design: species or system Microsome.
Assay [4] deals with T2, Sterol O-acyltransferase 1 (Mus musculus, UniProt Q61263).
T2 sequence (Q61263 whole entry): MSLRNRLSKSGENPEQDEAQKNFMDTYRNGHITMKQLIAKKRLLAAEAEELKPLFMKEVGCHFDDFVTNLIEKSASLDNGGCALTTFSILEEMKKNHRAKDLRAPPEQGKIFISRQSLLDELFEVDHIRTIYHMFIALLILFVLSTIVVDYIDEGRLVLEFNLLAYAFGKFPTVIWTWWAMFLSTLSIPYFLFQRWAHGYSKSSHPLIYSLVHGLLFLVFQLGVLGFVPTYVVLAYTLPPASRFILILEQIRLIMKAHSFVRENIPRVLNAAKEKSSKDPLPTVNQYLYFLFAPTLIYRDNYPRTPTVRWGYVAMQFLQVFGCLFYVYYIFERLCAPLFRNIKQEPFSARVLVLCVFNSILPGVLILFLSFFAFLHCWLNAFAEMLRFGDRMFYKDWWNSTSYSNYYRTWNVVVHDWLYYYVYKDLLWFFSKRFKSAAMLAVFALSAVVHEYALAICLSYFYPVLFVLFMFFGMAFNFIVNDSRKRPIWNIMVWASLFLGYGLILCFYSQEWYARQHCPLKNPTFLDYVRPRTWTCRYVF
As to the kind of experiment: Compound was tested for its ability to penetrate the cell wall and inhibit macrophage ACAT in cell culture using murine IC-21 macrophages (MAI). It is filed as functional.

Assay [5] concerns Oryctolagus cuniculus. As to the kind of experiment: Compound was tested for systemic bioactivity in plasma, drawn four hours post dose from cholesterol -fed rabbit, with rat liver microsomes (ABIO) at a dose of 22 mg/kg. Conditions: 4 h; call rule not given here. It is filed as functional. For orientation: Liver microsomes are a subcellular fraction often used to study metabolism.
The subject of assay [6] is Oryctolagus cuniculus. As to the kind of experiment: Compound was tested for systemic bioactivity in plasma, drawn four hours post dose from cholesterol -fed rabbit, with rat liver microsomes (ABIO) at a dose of 24 mg/kg. It is filed as functional. The conditions noted are these: 4 h.
Assay [7] concerns Oryctolagus cuniculus. As to the kind of experiment: Compound was tested for percent change in total serum cholesterol relative to progression control in an injured cholesterol-fed rabbit (ICFR) model at a dose of 5 mg/kg. It is filed as functional.
The test system of assay [8] is Oryctolagus cuniculus. The assay can be described thus: Compound was tested for systemic bioactivity in plasma, drawn four hours post dose from cholesterol -fed rabbit, with rat liver microsomes (ABIO) at a dose of 25 mg/kg. It is filed as functional. The conditions noted are these: 4 h.
In assay [9] the test system is Oryctolagus cuniculus. As to the kind of experiment: Compound was tested for percent change in total serum cholesterol relative to progression control in an injured cholesterol-fed rabbit (ICFR) model at a dose of 25 mg/kg. It is filed as functional.
In assay [10] the test system is Oryctolagus cuniculus. The assay can be described thus: Compound was tested for systemic bioactivity in plasma, drawn four hours post dose from cholesterol -fed rabbit, with rat liver microsomes (ABIO) at a dose of 5 mg/kg. It is filed as functional. Conditions: 4 h.
The test system of assay [11] is Oryctolagus cuniculus. The assay can be described thus: Anti-atherosclerosis activity was determined by measuring the thoracic aortic lesion coverage in an injured cholesterol-fed rabbit (ICFR) model at a dose of 5 mg/kg. It is filed as functional, Aorta.
The test system of assay [12] is Oryctolagus cuniculus. The assay can be described thus: Compound was tested for percent change in plasma triglycerides relative to progression control in an injured cholesterol-fed rabbit (ICFR) model at a dose of 5 mg/kg. It is filed as functional.
The subject of assay [13] is Oryctolagus cuniculus. The assay can be described thus: Compound was tested for percent change in plasma triglycerides relative to progression control in an injured cholesterol-fed rabbit (ICFR) model at a dose of 25 mg/kg(p<0.10). It is filed as functional.
The target in assay [14] is T2, Sterol O-acyltransferase 1. As to the kind of experiment: Compound was tested for its ability to penetrate the cell wall and inhibit macrophage ACAT in cell culture using murine IC-21 macrophages (MAI) at 0.1 uM; not active. It is filed as functional.
Assay [15] relates to Oryctolagus cuniculus. As to the kind of experiment: Anti-atherosclerosis activity was determined by measuring the thoracic aortic lesion coverage in an injured cholesterol-fed rabbit (ICFR) model at a dose of 25 mg/kg. It is filed as functional, Aorta.
The test system of assay [16] is Oryctolagus cuniculus. The assay can be described thus: Compound was tested for percent change in plasma triglycerides relative to progression control in an injured cholesterol-fed rabbit (ICFR) model at a dose of 25 mg/kg. It is filed as functional.
Assay [17] relates to Oryctolagus cuniculus. As to the kind of experiment: Anti-atherosclerosis activity was determined by measuring the thoracic aortic lesion coverage in an injured cholesterol-fed rabbit (ICFR) at a dose of 25 mg/kg. It is filed as functional, Aorta.

Regarding `CCCCCn1nnc(N(C(=O)Nc2c(OC)cc(OC)cc2OC)c2ccccc2)n1`, the “Delta TC” value in assay [1] is recorded as -43%. In addition, the IC50 in [2] turned out to be 450 nM.
The molecule `COc1cc(OC)c(NC(=O)N(c2ccccc2)c2nnn(CCCCCCCCCC(C)C)n2)c(OC)c1` had an IC50 in assay [3] of 40 nM.
In the case of `CCCCCCCCCCCCn1nnc(N(CCCCCCC)C(=O)Nc2c(OC)cc(OC)cc2OC)n1`, the “Delta TC” value in assay [1] was -20%. In assay [3], this molecule displayed an IC50 of 290 nM.
The corresponding values for `CC(C)c1cccc(C(C)C)c1NC(=O)N(c1ccccc1)c1nnn(CCCCCCCCOC2CCCCO2)n1` (stereo not drawn) are 42% and 16 nM.
On to `COc1cc(OC)c(NC(=O)N(c2ccccc2)c2nnn(CCCCCCCCOC3CCCCO3)n2)c(OC)c1` (stereo not drawn), for which the “Delta TC” value in [1] is on record as -50%. Moreover, in [3], the IC50 was found to be 41 nM.
In the same order, the values of `CCCCCCCCCCCCCCn1nnc(N(C(=O)Nc2c(OC)cc(OC)cc2OC)c2ccccc2)n1` are -22% and 71 nM.
For `CCCCCCCCCCCCn1nnc(N(Cc2ccccc2)C(=O)Nc2c(OC)cc(OC)cc2OC)n1`, the IC50 in assay [3] was determined as 35 nM.
As for `CCCCCCCCCCCCn1nnc(N(C(=O)Nc2c(OC)cc(OC)cc2OC)c2ccccc2)n1`, the values for the IC50 in assay [4] and in assay [2] were 890 nM and 61 nM, respectively. Besides, testing at 22 mg/kg in [5] gave an inhibition in vivo of 58%. Further, the “Delta TC” value in assay [1] worked out at 74%.
In turn, `CCCCCCCCCCCCn1nnc(N(C(=O)Nc2c(C(C)C)cccc2C(C)C)C2CCCCC2)n1` showed an inhibition in vivo at 24 mg/kg in assay [6] of 77%. Moreover, the IC50 in [4] was 3100 nM; in assay [3], 31 nM. Also, the “Delta TC” value in assay [1] is on record as 10%.
On to `CCCCCCCCCCCCn1nnc(N(C(=O)Nc2c(OC)cc(OC)cc2OC)C2CCCCC2)n1`, for which the “Delta TC” value was 22% in assay [7], 21% in assay [9] and 67% in [1]. The same molecule came in with an inhibition in vivo at 25 mg/kg in assay [8] of 58%. In addition, the inhibition in vivo at 5 mg/kg in assay [10] is 0%. In addition, the Lesion coverage in [11] was found to be 49%; in assay [15], 44%. Further, the “Delta TG” value in assay [12] turned out to be 4%; in assay [13], 68%. In addition, the values for the IC50 result in assay [14] and in assay [2] were “Not Active” and 57 nM, respectively.
In turn, `CCCCCCCCCCCCn1nnc(N(C(=O)Nc2c(C(C)C)cccc2C(C)C)c2ccccc2)n1` gave a half-inhibitory concentration (IC50) in [4] of 240 nM. Also, the inhibition in vivo at 22 mg/kg in assay [5] came out at 79%. For the same molecule, the “Delta TC” value in assay [1] worked out at 52%.
In assay [8], `CCCCCCCCCCC(C)(C)C(=O)Nc1c(OC)cc(OC)cc1OC` [CL-976] gave an inhibition in vivo at 25 mg/kg of 73%. Besides, in assay [9], the “Delta TC” value was -24%. For the same molecule, in assay [16], the “Delta TG” value is reported as -7%. The Lesion coverage in assay [17] turned out to be 39%.
